These results are taken from patent US20100331297A1, “MODULATION OF PROTEIN TRAFFICKING” (FOLDRX PHARMACEUTICALS, INC., priority 2007, published 2010).

Common to all, as to type: cell-based
Assay [1] has as its system ypt1^ts cells. In words: Rescue of growth of ypt1^ts mutant yeast (OD600). Particulars: Saccharomyces cerevisiae, read-out: Ypt1-ts MRC (Minimum Rescue Concentration), ypt1^ts cells, 35° C. and 37° C., OD600; multiple results separated by a comma. From the text: The activity of the compounds as modulators of protein trafficking may be measured in the assays described herein that evaluate the ability of a compound to rescue an impairment in protein trafficking. For example, the yeast mutant cell line ypt1^ts can be used to identify compounds that rescue cells from the lethal phenotype of a mutant YPT1 allele (see, e.g., Examples and Schmitt et al. (1988) Cell 53:635-47). The activity may be measured, for example, in a whole yeast cell assay using 384-well screening protocol and an optical density measurement.
The yeast mutant cell line ypt1^ts suppresses, in a temperature dependent fashion, the dominant-lethal phenotype of a mutant YPT1 allele (Schmitt et al. (1988) Cell 53:635-47). The yeast mutant cell line ypt1^ts contains an allele of YPT1 that has two point mutations: one that changes an asparagine at position 121 to a isoleucine (N121I) and another that changes an alanine at position 161 to a valine (A161V). The N121I mutation causes dominant lethality by itself, but lethality is suppressed by the second mutation, resulting in a recessive loss of function phenotype at the restrictive temperatures. ypt1^ts cells grow normally at temperatures up to 25° C., but are growth arrested at 37° C. (Id.).
Compounds were screened to assess their ability to restore growth of ypt1^ts cells. The effect of the compounds was measured on ypt1^ts cells cultured at room temperature (permissive temperature), 37° C. (non-permissive temperature), and 35° C. (semi-permissive temperature).
To determine if the test compounds could rescue the ypt1^ts mutant phenotype, ypt1^ts cells were grown overnight in synthetic complete (SC) media supplemented with 2% glucose at room temperature. Log phase cells were diluted into SC 2% glucose media to an OD600 of 0.003. 100 μL of this culture was then aliquoted into each well of 96-well flat bottom microtiter plates. 1 μL of the test compounds dissolved in DMSO (at a concentration range from 5 mM-0.005 mM) or of DMSO alone was added to each well (50 μM-0.05 μM final concentration in 1% DMSO). Plates were mixed by vortexing and incubated at 35° C. and 37° C. Compound rescue of the ypt1^ts temperature sensitive defect was assessed by measuring the OD600 (optical density at 600 nm; cell growth) of the cultures. Plates incubated at 35° C. were measured at 24 and 40 hours incubation time while plates grown at 37° C. were measured after 40 hours of incubation.
Assays monitoring the rescue of ypt1^ts mutants were performed using a vehicle, a positive control (calcium), and the compounds identified in Table II. Results in Table II corresponding to an MRC (Minimum Rescue Concentration) for ypt1^ts of greater than or equal to 50 micromolar are labeled +; of an MRC for ypt1^ts of 10-50 micromolar are labeled ++; and of an MRC for ypt1^ts of less than 10 micromolar are labeled +++. Multiple results for a particular compound are separated by a comma.

In assay [2] the target is T1, ΔF508 CFTR (Homo sapiens, UniProt P13569, DEL508-508). In words: Corrector activity, YFP halide (iodide) quenching assay in FRT cells expressing ΔF508 CFTR. The arrangement: expressed in transfected cells; host or cells: Fischer rat thyroid (FRT) cells. Particulars: FRT cells ΔF508 CFTR/YFP, 24 hours with compound at 37° C., forskolin and genistein; read-out: Corrector EC50. In outline: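 FRT cells co-expressing ΔF508 CFTR and halide-sensitive YFP were incubated 24 h at 37° C with compounds, then stimulated 30 min at 37° C in PBS with forskolin and genistein. Endpoint fluorescence after iodide injection was normalized to initial reading; EC50 from 4-parameter fit with bottom constrained to DMSO control.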
T1 sequence (P13569 with tags, fused parts or gaps DEL508-508): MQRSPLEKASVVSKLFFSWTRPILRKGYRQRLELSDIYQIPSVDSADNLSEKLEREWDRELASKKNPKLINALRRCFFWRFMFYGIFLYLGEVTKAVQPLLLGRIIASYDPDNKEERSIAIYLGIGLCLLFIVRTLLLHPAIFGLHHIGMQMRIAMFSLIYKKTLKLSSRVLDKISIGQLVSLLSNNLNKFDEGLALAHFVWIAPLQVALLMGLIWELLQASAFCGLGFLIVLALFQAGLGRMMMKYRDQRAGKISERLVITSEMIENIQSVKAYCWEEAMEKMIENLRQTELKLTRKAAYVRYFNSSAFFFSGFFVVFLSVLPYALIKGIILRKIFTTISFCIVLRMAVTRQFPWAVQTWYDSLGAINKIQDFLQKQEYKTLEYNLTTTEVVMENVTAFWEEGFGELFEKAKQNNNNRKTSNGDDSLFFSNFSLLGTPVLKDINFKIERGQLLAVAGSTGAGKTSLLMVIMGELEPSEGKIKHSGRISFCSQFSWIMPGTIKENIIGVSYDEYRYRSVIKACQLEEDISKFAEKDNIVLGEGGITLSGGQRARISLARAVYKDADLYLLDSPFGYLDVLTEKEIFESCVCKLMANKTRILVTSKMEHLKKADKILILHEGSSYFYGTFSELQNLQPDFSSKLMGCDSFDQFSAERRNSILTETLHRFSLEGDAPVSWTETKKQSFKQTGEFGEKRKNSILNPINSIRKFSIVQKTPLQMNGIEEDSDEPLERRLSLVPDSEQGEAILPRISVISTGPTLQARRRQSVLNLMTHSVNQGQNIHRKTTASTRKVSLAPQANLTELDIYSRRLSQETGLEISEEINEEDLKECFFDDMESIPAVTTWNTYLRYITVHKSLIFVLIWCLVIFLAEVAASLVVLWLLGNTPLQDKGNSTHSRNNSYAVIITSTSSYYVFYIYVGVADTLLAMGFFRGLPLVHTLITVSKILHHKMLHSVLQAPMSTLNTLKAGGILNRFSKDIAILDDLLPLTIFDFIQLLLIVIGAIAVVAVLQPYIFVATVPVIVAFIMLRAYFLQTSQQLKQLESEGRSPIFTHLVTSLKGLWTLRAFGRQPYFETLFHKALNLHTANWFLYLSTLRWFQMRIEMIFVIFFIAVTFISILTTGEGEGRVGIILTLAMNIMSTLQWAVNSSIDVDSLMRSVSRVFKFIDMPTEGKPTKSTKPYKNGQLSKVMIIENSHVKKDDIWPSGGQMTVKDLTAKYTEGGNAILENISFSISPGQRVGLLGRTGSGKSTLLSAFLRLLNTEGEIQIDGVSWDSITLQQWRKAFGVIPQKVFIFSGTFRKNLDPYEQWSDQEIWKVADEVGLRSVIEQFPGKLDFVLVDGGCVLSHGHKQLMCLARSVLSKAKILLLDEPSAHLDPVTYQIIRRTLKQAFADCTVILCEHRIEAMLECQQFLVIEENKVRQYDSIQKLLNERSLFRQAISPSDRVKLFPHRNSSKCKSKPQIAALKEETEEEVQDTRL

The target of assay [3] is T1, ΔF508 CFTR. In words: Potentiator activity, YFP halide (iodide) quenching assay in FRT cells expressing ΔF508 CFTR, 27° C. pre-incubation. Particulars: FRT cells ΔF508 CFTR/YFP, 24 hours at 27° C., compound with forskolin 30 min. The arrangement: expressed in transfected cells; host or cells: Fischer rat thyroid (FRT) cells. In outline:
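FRT cells stably co-expressing ΔF508 CFTR and halide-sensitive YFP, grown 24 h at 37° C. then 24 h at 27° C. to raise surface CFTR. Compounds in PBS with forskolin, 30 min at 37° C.; iodide injected and YFP quenching (ex 485/em 530 nm) followed. EC50 from normalized endpoint fluorescence.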

Bounds are passed on as bounds.

For the compound `CC(C)(C)n1nc(-c2ccccc2Cl)c2c(N)ncnc21` [compound 7], the minimal effective concentration in assay [1] is greater than 50 µM.
With `CC(C)(C)n1nc(-c2ccc(F)cc2)c2c(N)ncnc21` [compound 9, 1-tert-Butyl-3-(4-fluoro-phenyl)-1H-pyrazolo[3,4-d]pyrimidin-4-ylamine], in assay [1], the minimal effective concentration is greater than 50 µM.
Still for that read-out and setting: the figure for `CC(C)(C)n1ncc2c(N)ncnc21` [compound 12, 1-tert-butyl-1H-pyrazolo[3,4-d]pyrimidin-4-ylamine] is greater than 50 µM; for `COc1ccc(-c2nn(C(C)(C)C)c3ncnc(N)c23)cc1` [compound 13] it is greater than 50 µM.
On the same count and under the same terms, the result for `CC(C)(C)n1nc(-c2ccc(-c3ccccc3)cc2)c2c(N)ncnc21` [compound 14] reads greater than 50 µM; that for `CC(C)(C)n1nc(-c2cccs2)c2c(N)ncnc21` [compound 15], greater than 50 µM.
Regarding `CC(C)c1ccc(-c2nn(C(C)(C)C)c3ncnc(N)c23)cc1` [compound 17], in assay [1], the minimal effective concentration was greater than 50 µM.
On the same count and under the same terms, the figure for `CC(C)(C)c1ccc(-c2nn(C(C)(C)C)c3ncnc(N)c23)cc1` [compound 18] is greater than 50 µM; for `CC(C)(C)n1nc(Cc2ccc(Cl)cc2)c2c(N)ncnc21` [compound 19] it is less than 10 µM; for `CC(C)(C)n1nc(Cc2ccccc2Cl)c2c(N)ncnc21` [compound 20] it is 10 to 50 µM.
On the same count and under the same terms, the result for `CC(C)(C)n1nc(Cc2ccc(Cl)c(Cl)c2)c2c(N)ncnc21` [compound 21] reads greater than 50 µM; that for `Cc1ccc(Cc2nn(C(C)(C)C)c3ncnc(N)c23)cc1` [compound 22], 10 to 50 µM; that for `CC(C)(C)n1nc(Cc2ccc3c(c2)OCO3)c2c(N)ncnc21` [compound 23], 10 to 50 µM.
On the same count and under the same terms, the figure for `Nc1ncnc2c1c(-c1ccc(Cl)cc1)nn2Cc1ccccc1` [compound 28] is 10 to 50 µM; for `CC(C)(C)n1nc(-c2ccc(C#N)cc2)c2c(N)ncnc21` [compound 35] it is greater than 50 µM; for `CC(C)(C)n1nc(-c2ccc(Cl)c(Cl)c2)c2c(N)ncnc21` [compound 36] it is greater than 50 µM.
Take `CC(C)(C)n1nc(-c2ccsc2)c2c(N)ncnc21` [compound 37]: in assay [1], the minimal effective concentration was greater than 50 µM.
On the same count and under the same terms, the result for `CC(C)(C)n1nc(-c2cc3ccccc3o2)c2c(N)ncnc21` [compound 42] reads greater than 50 µM.
As to `Cc1ccc(-c2nn(C(C)(C)C)c3ncc(C(=O)O)c(N)c23)cc1` [compound 45, 4-Amino-1-tert-butyl-3-p-tolyl-1H-pyrazolo[3,4-b]pyridine-5-carboxylic acid], the minimal effective concentration in assay [1] was greater than 50 µM.
`CC(C)(C)n1nc(CCc2ccccc2)c2c(N)ncnc21` [compound 48]: in assay [1], the minimal effective concentration was greater than 50 µM.
Same read-out and setting: the result for `CC(c1ccccc1)c1nn(C(C)(C)C)c2ncnc(N)c12` (stereo not shown) [compound 49] reads 10 to 50 µM; that for `CC(C)(C)n1nc(Cc2cccc(F)c2)c2c(N)ncnc21` [compound 50], 10 to 50 µM.
Still for that read-out and setting: the figure for `CC(C)(C)n1nc(Cc2ccc(F)cc2)c2c(N)ncnc21` [compound 51] is greater than 50 µM; for `Cc1cccc(Cc2nn(C(C)(C)C)c3ncnc(N)c23)c1` [compound 52] it is 10 to 50 µM; for `CCn1nc(-c2ccc(Cl)cc2)c2c(N(C(C)=O)C(C)=O)ncnc21` [compound 54] it is greater than 50 µM.
Still for that read-out and setting: the result for `COc1cccc(Cc2nn(C(C)(C)C)c3ncnc(N)c23)c1` [compound 56] reads 10 to 50 µM.
As for `Cc1nc(N)c2c(-c3ccc(Cl)cc3)nn(C(C)(C)C)c2n1` [compound 57], the minimal effective concentration in assay [1] lay in the range of 10 to 50 µM.
On the same count and under the same terms, the result for `CC(C)(C)n1nc(Cc2cccc(Br)c2)c2c(N)ncnc21` [compound 58] reads less than 10 µM.
For the compound `CC(C)(C)n1nc(Cc2cccc(C#N)c2)c2c(N)ncnc21` [compound 59], in assay [1], the minimal effective concentration is greater than 50 µM.
Turning to `CCn1cc(-c2ccc(Cl)cc2)c2c(NC(=O)NC(C)C)ncnc21` [compound 328], the 50% effective concentration (EC50) in assay [2] and in assay [3] was greater than 15 µM each time.
For the compound `CC(C)(C)n1nc([S+]([O-])c2ccccn2)c2c(N)ncnc21` (stereo not shown) [compound 329], the EC50 in assay [2] and in assay [3] was greater than 15 µM in each case.
Regarding `CC(C)(C)n1nc(Oc2ccccn2)c2c(N)ncnc21` [compound 330], the 50% effective concentration (EC50) in assay [2] and in assay [3] was greater than 15 µM in each case.
In the case of `CC(C)(C)n1nc(Oc2ccccc2[N+](=O)[O-])c2c(N)ncnc21` [compound 331], the figures for the EC50 in assay [2] and in assay [3] were greater than 15 µM and 2 to 5 µM, respectively.
On the same counts, the results for `CC(=O)C1CC(n2nc(Sc3ccccc3)c3c(N)ncnc32)C1` (stereo not shown) [compound 334] are greater than 15 µM and greater than 15 µM.
With `CC(C)(C)n1nc(-c2ccc(Cl)cc2)c2c(NC(=O)O[C@@H]3CCOC3)ncnc21` [compound 335], the EC50 (in general, the concentration giving half of the maximal effect) in assay [2] is 5 to 10 µM; in assay [3], greater than 15 µM.
Regarding `CCn1cc(-c2ccc(Cl)cc2)c2c(NC(=O)C(C)C)ncnc21` [compound 336], the 50% effective concentration (EC50) in assay [2] was less than 2 µM; in assay [3], 5 to 10 µM.
On the same counts, the results for `CC(C)N1CCC(n2nc(-c3ccc(Cl)cc3)c3c(N)ncnc32)CC1` [compound 342] are greater than 15 µM and greater than 15 µM.
With `CC(C)(C)OC(=O)n1nc(Sc2cccc(Cl)c2)c2c(N)ncnc21` [compound 343], the EC50 in assay [2] is greater than 15 µM; in assay [3] it was less than 2 µM.
With `CC(=O)N1CC(n2nc(Sc3cccc(Cl)c3)c3c(N)ncnc32)C1` [compound 344], the concentration giving a half-maximal response (EC50) in assay [2] and in assay [3] was greater than 15 µM throughout.
For `CCOC(=O)N1CC(n2nc(Sc3ccccc3)c3c(N)ncnc32)C1` [compound 347], the 50% effective concentration (EC50) in assay [2] and in assay [3] was greater than 15 µM each time.
`CC(C)(C)C(=O)Nc1ncnc2c1c(-c1ccc(Cl)cc1)cn2C(C)(C)C` [compound 349]: the EC50 in assay [2] and in assay [3] was 2 to 5 µM throughout.
Regarding `CCn1cc(-c2ccc(Cl)cc2)c2c(NC(=O)C3CCCC3)ncnc21` [compound 350], the results for the EC50 in assay [2] and in assay [3] were less than 2 µM and greater than 15 µM, respectively.
On to `CC(C)(C1CC1)n1cc(-c2ccc(Cl)cc2)c2c(N)ncnc21` [compound 351], for which the values for the concentration for a half-maximal effect (EC50) in assay [2] and in assay [3] were 2 to 5 µM and less than 2 µM, respectively.
On the same counts, the results for `CC(C)C(=O)Nc1ncnc2c1c(-c1ccc(Cl)cc1)cn2C(C)C` [compound 352] are less than 2 µM and less than 2 µM.
Take `CCn1nc([S+]([O-])c2ccccn2)c2c(N)ncnc21` (stereo not shown) [compound 353]: the 50% effective concentration (EC50) in assay [2] is greater than 15 µM; in assay [3] it was 5 to 10 µM.
As for `Nc1ncnc2c1c(-c1ccc(Cl)cc1)nn2C1CNC1` [compound 411], the EC50 in assay [2] and in assay [3] was greater than 15 µM each time.
For `Nc1ncnc2c1c(-c1ccc(Cl)cc1)nn2C1CCNCC1` [compound 412], the EC50 in assay [2] and in assay [3] was greater than 15 µM each time.
Consider `Nc1ncnc2c1c(Cc1cccc3ccccc13)nn2C1CNC1` [compound 413], for which the EC50 in assay [2] and in assay [3] was greater than 15 µM in each case.
